Earlier results on one compound are cited in patent US8945526B2, “Amphiphilic substance, and drug delivery system and molecular imaging system using the same” (Shimadzu Corporation, priority 2006, dated 2015).

The conditions of this data set: ICG singly administered.

For the compound `CC1(C)C(/C=C/C=C/C=C/C=C2\N(CCCCS(=O)(=O)O)c3ccc4ccccc4c3C2(C)C)=[N+](CCCCS(=O)(=O)[O-])c2ccc3ccccc3c21` [ICG, indocyanine green], the “removal from the body” value was “removed from a body in one hour”.
